Data from ChEMBL document CHEMBL1159190, “Determination of the active conformation of 6-amino--[(4-diphenylmethyl-1-piperazinyl)methyl-9H-purine]-9-ethanol: a positive inotropic agent” (1993).

What was measured:
[1] = species on record: Rattus norvegicus; test: Contractile force determined in rat atria; type: functional
[2] = species on record: Rattus norvegicus; test: Functional refractory period (FRP) determined in rat atria
[3] = Rattus norvegicus, read-out: EC25

SMILES | EC25 [1, 3] | EC25 [2, 3] | EC25 [1] | EC25 [2]
Nc1ncnc2c1ncn2C[C@@]1(O)CC[C@H]2CN(C(c3ccccc3)c3ccccc3)CCN2C1 | 15 µM | 15 µM | – | –
Nc1ncnc2c1ncn2C[C@]1(O)CC[C@H]2CN(C(c3ccccc3)c3ccccc3)CCN2C1 | 6.5 µM | 1.8 µM | – | –
Nc1ncnc2c1ncn2CC(O)CN1CCN(C(c2ccccc2)c2ccccc2)CC1 (configuration not stated) | 0.5 µM | 0.2 µM | – | –
Nc1ncnc2c1ncn2C1CCCC(N2CCN(C(c3ccccc3)c3ccccc3)CC2)C1O (cis isomer) | – | – | 20 µM | 17 µM
Nc1ncnc2c1ncn2C1CCCC(N2CCN(C(c3ccccc3)c3ccccc3)CC2)C1O (stereo in doubt) | – | – | 1.5 µM | 0.9 µM
Nc1ncnc2c1ncn2C1CCCC(N2CCN(C(c3ccccc3)c3ccccc3)CC2)C1O (trans isomer) | – | – | 1.2 µM | 9 µM
